Results taken from patent publication US20140179681A1, “METHODS AND COMPOSITIONS OF TARGETED DRUG DEVELOPMENT” (priority 2010, published 2014).
Where a name gives a salt, the structure may show the parent alone. Read-outs that look alike come from different tables or passages of the source.

Experiments:
EGFR = biological target: T1, EGFR (Homo sapiens, UniProt P00533); assay: EGFR in-cell Western (ICW) screening protocol (EGFR inhibition assay); assay type: cell-based; parameters: ICW 1 / ICW 2 / ICW Avg: unit not given here; conditions: for ICW Screen: Table 11; for ICW Screen / ICW assay: % Inhibition of EGF dependent EGFR phosphorylation in A431 cells, compound 125 μM in assay; for ICW Avg / ICW 1 / ICW 2: ICW assay; for ICW Avg: average of runs 1 and 2; for ICW 1: run 1; for ICW 2: run 2; for ICW assay: Table 10
T1 construct: host or cells: A431
T1 sequence (P00533 25-1210): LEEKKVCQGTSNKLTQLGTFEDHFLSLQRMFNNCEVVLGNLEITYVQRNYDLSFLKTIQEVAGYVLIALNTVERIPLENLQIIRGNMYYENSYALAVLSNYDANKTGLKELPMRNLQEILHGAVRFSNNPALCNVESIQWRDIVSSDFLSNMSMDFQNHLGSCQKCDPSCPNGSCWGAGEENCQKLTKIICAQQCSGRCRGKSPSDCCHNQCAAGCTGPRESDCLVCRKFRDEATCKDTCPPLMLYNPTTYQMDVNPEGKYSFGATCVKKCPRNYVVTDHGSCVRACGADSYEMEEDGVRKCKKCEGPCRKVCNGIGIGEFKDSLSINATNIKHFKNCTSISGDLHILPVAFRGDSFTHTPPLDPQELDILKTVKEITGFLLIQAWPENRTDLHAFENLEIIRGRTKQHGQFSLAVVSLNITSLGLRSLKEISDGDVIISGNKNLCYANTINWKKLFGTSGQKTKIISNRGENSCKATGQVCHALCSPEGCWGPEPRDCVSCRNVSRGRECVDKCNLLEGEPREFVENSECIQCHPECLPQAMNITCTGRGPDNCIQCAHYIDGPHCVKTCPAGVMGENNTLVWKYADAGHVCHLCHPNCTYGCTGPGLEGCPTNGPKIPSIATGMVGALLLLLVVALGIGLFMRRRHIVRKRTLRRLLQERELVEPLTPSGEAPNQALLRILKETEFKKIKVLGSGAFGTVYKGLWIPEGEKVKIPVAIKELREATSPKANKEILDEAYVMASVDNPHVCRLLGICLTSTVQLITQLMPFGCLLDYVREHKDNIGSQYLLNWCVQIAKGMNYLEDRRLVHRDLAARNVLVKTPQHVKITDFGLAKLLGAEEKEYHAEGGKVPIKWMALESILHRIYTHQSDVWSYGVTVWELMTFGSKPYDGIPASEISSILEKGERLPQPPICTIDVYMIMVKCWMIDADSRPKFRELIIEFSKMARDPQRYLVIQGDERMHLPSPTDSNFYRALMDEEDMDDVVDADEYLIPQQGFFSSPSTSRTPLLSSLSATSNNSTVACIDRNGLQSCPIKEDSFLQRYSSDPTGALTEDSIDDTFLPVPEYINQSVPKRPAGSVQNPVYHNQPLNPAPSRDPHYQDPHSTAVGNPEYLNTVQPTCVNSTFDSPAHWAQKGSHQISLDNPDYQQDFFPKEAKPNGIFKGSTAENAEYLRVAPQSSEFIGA
In short: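 In-cell Western read-out: fixed A431 cells were co-stained for total EGFR and phospho-EGFR (Tyr1173; some runs Tyr1045). Before fixation, cells were serum-starved for 2 h, exposed to compound for 4 h, then given EGF for 10 min, usually at 10 ng/ml final (6.6 or 12.5 ng/ml in some runs).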

[1] = tested on: epithelial carcinoma A431 cell line; assay: MTT Cell Proliferation Assay, A431 cells; assay type: cell-based; conditions: for MTT Assay IC50(A431/MDBK): ratio in parentheses: ratio MDBK IC50 / A431 IC50 (selectivity)
In short: (§1)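 Each concentration ran in quadruplicate across duplicate plates, with compounds serially diluted in DMSO and delivered at 0.5% DMSO in 0.5% FBS medium for 3 days.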

MDBK line = assay: MTT Cell Proliferation Assay, MDBK cells; assay type: cell-based, bovine
In short: as §1

[2] = Bos taurus, MDBK, Table 11, second of x/y(ratio): MDBK, unit not printed (doses in μM), read-out: MTT Screen (second value)
[3] = Homo sapiens, A-431, A431 cells, first value of cell, read-out: MTT Assay IC50(A431/MDBK): A431
[4] = Bos taurus, MDBK, MDBK cells, second value of cell, read-out: MTT Assay IC50(A431/MDBK): MDBK
[5] = Homo sapiens, A-431, first value of 'a/b (c)', taken as A431 cells, read-out: MTT Screen, first value of cell
[6] = Bos taurus, MDBK, second value of 'a/b (c)', taken as MDBK cells, read-out: MTT Screen, second value of cell
[7] = Homo sapiens, A-431, 72 h, Table 10, first of x/y(ratio): A431, three day treatment, unit not printed (doses in μM), read-out: MTT assay (first value)
[8] = Bos taurus, MDBK, 72 h, Table 10, second of x/y(ratio): MDBK, three day treatment, unit not printed (doses in μM), read-out: MTT assay (second value)

Row | SMILES | ICW Avg (EGFR) | ICW 1 (EGFR) | ICW 2 (EGFR) | ICW Screen (ICW Inhibition) (EGFR) | IC50 [1, 5] | IC50 (MDBK line; [6]) | further results
1 | Cc1ccc2c(CN3CCN(Cc4ccc5c(c4)OCO5)CC3)cc(=O)oc2c1C [AD4-10181] | – | – | – | – | – | – | ICW Screen (EGFR): 34.604; IC50 ([1]; Homo sapiens, A-431, 72 h, Table 11, first of x/y(ratio): A431, unit not printed (doses in μM), read-out: MTT Screen (first value)): 2.61 µM; IC50 (MDBK line; [2]): 16 µM
2 | Cc1ccc(C2CC(=O)c3cnc(Nc4nc(C)c5cc(C)c(C)cc5n4)nc3C2)cc1 (stereo not shown) [11670 + TFA] | 25.27 | 34.91 | 15.63 | – | – | – | IC50 [1, 3]: 13.5 µM; MTT Assay IC50(A431/MDBK): ratio in parentheses [1]: 1.80; IC50 (MDBK line; [4]): 24.3 µM
3 | Cc1ccc2c(C)nc(Nc3nc(CSc4nnc(C)s4)cc(=O)[nH]3)nc2c1 [compound 11469] | 25.25 | 26.79 | 23.71 | – | – | – | IC50 [1, 3]: 10.1 µM; MTT Assay IC50(A431/MDBK): ratio in parentheses [1]: 1.13; IC50 (MDBK line; [4]): 11.5 µM
4 | CCc1cc2c(CN3CCN(Cc4ccccc4)CC3)cc(=O)oc2cc1O [AD4-10186] | – | – | – | – | – | – | ICW Screen (EGFR): 47.518; IC50 ([1]; Homo sapiens, A-431, Table 11, first of x/y(ratio): A431, unit not printed (doses in μM), read-out: MTT Screen (first value)): 40.1 µM; IC50 (MDBK line; [2]): 45.7 µM
5 | CC(C)CC(=O)NC(=S)Nc1ccc(S(=O)(=O)N2CCc3ccccc32)cc1 [AD4-10626] | – | – | – | 50.05 | 5.31 µM | 19.6 µM | –
6 | COc1ccc(NS(=O)(=O)c2ccc(NC(=S)NC(=O)CCC(=O)OCCc3ccccc3)cc2)cc1 [AD4-12149] | – | – | – | 33.331 | 21.9 µM | 36.2 µM | –
7 | Cc1cc(NS(=O)(=O)c2ccc(NC(=S)NC(=O)/C=C/c3ccccc3)cc2)no1 [AD4-12273] | – | – | – | 33.104 | – | – | IC50 ([1]; first value of 'a/b (c)', taken as A431 cells, read-out: MTT Screen, first value of cell): 31.7 µM; IC50 (MDBK line; second value of 'a/b (c)', taken as MDBK cells, read-out: MTT Screen, second value of cell): 42.9 µM
8 | O=S(=O)(Nc1ccccc1)c1ccc(NC(=S)Nc2cc(Cl)ccc2Cl)cc1 [AD4-12855] | – | – | – | – | – | – | ICW assay (EGFR): 25.0542; IC50 [1, 7]: 6.83 µM; IC50 (MDBK line; [8]): 6.25 µM
9 | CCc1c(C)nc(Nc2nc(C)c3ccc(C)cc3n2)[nH]c1=O [12683 + TFA] | 40.88 | 54.37 | 27.38 | – | – | – | IC50 ([1]; A431 cells, first value of cell, read-out: MTT Assay IC50(A431/MDBK): A431): 63.4 µM; MTT Assay IC50(A431/MDBK): ratio in parentheses [1]: 0.71; IC50 (MDBK line; MDBK cells, second value of cell, read-out: MTT Assay IC50(A431/MDBK): MDBK): 45.3 µM
10 | CCOC(=O)c1c(N)nc(Nc2nc(C)c3cc(C)ccc3n2)nc1-c1ccccc1 [compound 11812] | 56.84 | 51.90 | 61.77 | – | – | – | IC50 [1, 3]: 14.7 µM; IC50 (MDBK line; [4]): 31.6 µM
11 | Cc1cc2nc(Nc3ncc4c(n3)CC(c3cccs3)CC4=O)nc(C)c2cc1C (stereo not shown) [11681 + TFA] | 29.86 | 30.46 | 29.26 | – | – | – | IC50 [1, 3]: 5.47 µM; MTT Assay IC50(A431/MDBK): ratio in parentheses [1]: 0.75; IC50 (MDBK line; [4]): 4.08 µM
12 | CCN(c1ccccc1)S(=O)(=O)c1ccc(NC(=S)NC(=O)Cc2ccccc2)cc1 [AD4-11412] | – | – | – | 31.958 | 11.4 µM | 20 µM | –
13 | CC(C)NS(=O)(=O)c1ccc(NC(=S)NC(=O)CCCCCOc2ccc(Cl)cc2Cl)cc1 [AD4-11538] | – | – | – | 34.978 | 5.48 µM | 5.19 µM | –
14 | Cc1ccc(NC(=S)Nc2ccc(S(=O)(=O)Nc3ccc(Cl)cc3)cc2)cc1 [AD4-12413] | – | – | – | – | – | – | ICW assay (EGFR): 35.1946; IC50 [1, 7]: 6.83 µM; IC50 (MDBK line; [8]): 6.35 µM

Further lines, with some results ahead:

Row | ICW Avg (EGFR) | ICW 1 (EGFR) | ICW 2 (EGFR) | ICW Screen (ICW Inhibition) (EGFR) | IC50 [1, 5] | SMILES | IC50 (MDBK line; [6]) | further results
15 | – | – | – | 25.235 | 49.8 µM | CCOC(=O)CCC(=O)NC(=S)Nc1ccc(S(=O)(=O)Nc2cc(OC)nc(OC)n2)cc1 [AD4-11980] | 24.4 µM | –
16 | 82.50 | 77.05 | 87.95 | – | – | Cc1ccc2c(C)nc(Nc3nc(-c4ccccc4C)cc(=O)[nH]3)nc2c1 [compound 11511] | – | IC50 ([1]; Homo sapiens, A-431, follow-up MTT, A431 cells, first value, read-out: MTT Follow-up: A431): 1.26 µM; MTT Follow-up: ratio in parentheses ([1]; follow-up MTT, ratio MDBK/A431): 0.45; IC50 (MDBK line; Bos taurus, MDBK, follow-up MTT, MDBK cells, second value, read-out: MTT Follow-up: MDBK): 0.57 µM
17 | 65.68 | 62.56 | 68.79 | – | – | Cc1cc(C)nc(Nc2nc(N)c3ccccc3n2)n1 [compound 11829] | – | IC50 [1, 3]: 19.6 µM; IC50 (MDBK line; [4]): 16.2 µM
18 | – | – | – | 66.452 | 45.6 µM | COc1ccc(/C=C/C(=O)NC(=S)Nc2ccc(S(=O)(=O)Nc3cc(OC)nc(OC)n3)cc2)cc1 [AD4-11645] | 47 µM | –
